Assay results taken from patent US6203976A, “Methods of preparing compositions comprising chemicals capable of transcriptional modulation” (OSI Pharmaceuticals, Inc., priority 1994, dated 2001).
Where two headings read alike, the source gives them in different places.

Key:
MMTV (M10) promoter = test: High-throughput luciferase reporter assay, MMTV promoter (Screen III); type: cell-based, mouse; settings: M10 cells, 6 hours; for FOLD INHIBITION RELATIVE TO SOLVENT CONTROL, MMTV: Screen III inhibitors; for FOLD INDUCTION RELATIVE TO SOLVENT CONTROL, MMTV: Screen III activators
[1] = test system: human G-CSF (G21) promoter; settings: Screen III inhibitors; G21 cells; 6 hours
[2] = test system: human growth hormone (532) promoter; test: High-throughput luciferase reporter assay, human Growth Hormone promoter (Screen III); type: cell-based; settings: 532 cells, 6 hours; for FOLD INHIBITION RELATIVE TO SOLVENT CONTROL, hGH: Screen III inhibitors; for FOLD INDUCTION RELATIVE TO SOLVENT CONTROL, hGH: Screen III activators
[3] = test system: human G-CSF (G21) promoter; test: High-throughput luciferase reporter assay, G-CSF promoter (Screen III); settings: G21 cells, 6 hours; for FOLD INHIBITION RELATIVE TO SOLVENT CONTROL, GCSF: Screen III inhibitors; for FOLD INDUCTION RELATIVE TO SOLVENT CONTROL, GCSF: Screen III activators

SMILES | FOLD INHIBITION RELATIVE TO SOLVENT CONTROL, MMTV (MMTV (M10) promoter) [fold] | FOLD INHIBITION RELATIVE TO SOLVENT CONTROL, GCSF [1] [fold] | FOLD INHIBITION RELATIVE TO SOLVENT CONTROL, hGH [2] [fold] | FOLD INHIBITION RELATIVE TO SOLVENT CONTROL, GCSF [3] [fold] | FOLD INDUCTION RELATIVE TO SOLVENT CONTROL, MMTV (MMTV (M10) promoter) [fold] | FOLD INDUCTION RELATIVE TO SOLVENT CONTROL, hGH [2] [fold] | FOLD INDUCTION RELATIVE TO SOLVENT CONTROL, GCSF [3] [fold]
O=S(=O)(O)c1ccc2c(N=Nc3ccc(S(=O)(=O)O)c4ccccc34)c(O)c(S(=O)(=O)O)cc2c1 [compound 512] | 0.68 | 0.81 | 5.26 | – | – | – | –
CC1(C)[C@H]2CC[C@]1(C)[C@H](O)C2 [compound 1635] | 0.99 | 0.71 | 9.09 | – | – | – | –
O=S(=O)(O)c1ccc(-c2ccnc(-c3nnc(-c4ccc(S(=O)(=O)O)cc4)c(-c4ccc(S(=O)(=O)O)cc4)n3)c2)cc1 [compound 1648] | 1.00 | – | 7.69 | 0.86 | – | – | –
COC(=O)CP(=O)(OCC(F)(F)F)OCC(F)(F)F [compound 1651] | 0.70 | – | 3.57 | 0.69 | – | – | –
O=C(O)c1cc(C(F)(F)F)ccc1C(F)(F)F [compound 1655] | 0.81 | – | 4.76 | 0.54 | – | – | –
OCC1CC2C3CC(CO)C(C3)C2C1 (stereo not drawn) [compound 1678] | – | – | – | – | 0.89 | 7.08 | 0.36
N#Cc1cccc(Br)c1 [compound 1703] | 0.90 | – | 10.00 | 0.76 | – | – | –
N#Cc1ccc(Br)cc1 [compound 1704] | 0.94 | – | 4.16 | 0.77 | – | – | –
O=C(c1ccccc1)c1ccc(Br)cc1 [compound 1705] | 0.62 | – | 14.28 | 0.54 | – | – | –
Cc1cc(=O)oc2c(CN(CC(=O)O)CC(=O)O)c(O)ccc12 [compound 1712] | 0.94 | – | 8.33 | 0.74 | – | – | –
CC1(C)[C@H]2CC[C@]1(C)C(=O)C2 [compound 1720] | 0.66 | 0.65 | 4.76 | – | – | – | –
CCOC(=O)c1c[nH]c(=S)[nH]c1=O [compound 1740] | – | – | – | – | 0.87 | 17.77 | 0.74
N[C@@H](CCCCNC(=O)OCc1ccccc1)C(=O)O [compound 1747] | – | – | – | – | 0.86 | 6.16 | 0.78
Cc1cc(=O)oc2cc(OCC(=O)O)ccc12 [compound 1764] | 0.82 | – | 7.14 | 0.55 | – | – | –
Cc1c(C(=O)O)c(O)cc2c1C(=O)c1c(O)c([C@@H]3O[C@H](CO)[C@@H](O)[C@H](O)[C@H]3O)c(O)c(O)c1C2=O [compound 1770] | 0.57 | – | 10.00 | 0.54 | – | – | –
NCCC(=O)N[C@@H](Cc1cnc[nH]1)C(=O)O [compound 1771] | 0.72 | – | 10.00 | 0.71 | – | – | –
Cc1cc(C2(c3cc(C)c(O)c(CN(CC(=O)O)CC(=O)O)c3)OC(=O)c3ccccc32)cc(CN(CC(=O)O)CC(=O)O)c1O [compound 1773] | 0.67 | – | 10.00 | 0.62 | – | – | –
N=c1cc2oc3cc(N)ccc3nc-2c2ccccc12 [compound 1776] | – | – | – | – | 1.36 | 0.15 | 3.50

SMILES | FOLD INHIBITION RELATIVE TO SOLVENT CONTROL, MMTV (MMTV (M10) promoter) [fold] | FOLD INHIBITION RELATIVE TO SOLVENT CONTROL, GCSF [1] [fold] | FOLD INHIBITION RELATIVE TO SOLVENT CONTROL, hGH [2] [fold] | FOLD INHIBITION RELATIVE TO SOLVENT CONTROL, GCSF [3] [fold] | FOLD INDUCTION RELATIVE TO SOLVENT CONTROL, MMTV (MMTV (M10) promoter) [fold] | FOLD INDUCTION RELATIVE TO SOLVENT CONTROL, hGH [2] [fold] | FOLD INDUCTION RELATIVE TO SOLVENT CONTROL, GCSF [3] [fold]
CN(C)C(=S)SCC#N [compound 1793] | – | – | – | – | 1.21 | 0.52 | 9.50
O=C(O)C1CCC1 [compound 1804] | – | – | – | – | 0.49 | 9.41 | 1.05
O=c1[nH]c(=O)c2nc3ccccc3nc2[nH]1 [compound 1890] | 0.58 | – | 5.26 | 0.80 | – | – | –
Nc1c2ccccc2nc2ccccc12 [compound 1904] | – | – | – | – | 0.82 | 0.54 | 4.12
Brc1cccc(-c2ccccc2)c1 [compound 1994] | – | – | – | – | 0.63 | 0.34 | 3.29
CC(C)(C)c1ccc(Br)cc1 [compound 2001] | – | – | – | – | 1.12 | 0.74 | 3.11
Cc1n[nH]c(C)c1Br [compound 2009] | 0.64 | 3.70 | 0.57 | – | – | – | –
Nc1c(Br)cc([N+](=O)[O-])cc1[N+](=O)[O-] [compound 2010] | 3.57 | – | 0.63 | 0.80 | – | – | –
COc1c(F)cc(Br)cc1[N+](=O)[O-] [compound 2030] | – | – | – | – | 0.87 | 0.67 | 5.53
O=C(O)c1ccc(Br)o1 [compound 2035] | 0.89 | – | 7.14 | 0.57 | – | – | –
Nc1nc2c(nc(Br)n2[C@@H]2O[C@H](CO)[C@@H](O)[C@H]2O)c(=O)[nH]1 [compound 2036] | 0.81 | 0.58 | 4.34 | – | – | – | –
CCCCCCCCCCCCCCCCBr [compound 2037] | 0.50 | 0.51 | 4.00 | – | – | – | –
COc1cc2oc(=O)cc(CBr)c2cc1OC [compound 2064] | – | – | – | – | 2.53 | 1.10 | 0.82
CC(CCl)CBr (stereo not drawn) [compound 2096] | – | – | – | – | 0.89 | 0.61 | 3.27
ClCc1ccc(Cl)cc1 [compound 2129] | – | – | – | – | 0.95 | 0.75 | 3.23
O=C1CCCCC1Cl (stereo not drawn) [compound 2148] | – | – | – | – | 2.82 | 0.92 | 0.45
O=C(N[C@H](CO)[C@H](O)c1ccc([N+](=O)[O-])cc1)C(Cl)Cl [compound 2191] | – | – | – | – | 7.32 | 0.35 | 0.37
